Reference: patent publication US20260232767A1, “INTERLEUKIN-23 RECEPTOR ANTAGONIST PEPTIDES FOR USE IN THE TREATMENT OF PSORIASIS” (Janssen Pharmaceutica NV, priority 2023, published 2026)
Read-outs that look alike come from different tables or passages of the source.

System: anti-drug antibodies to the IL-23 receptor antagonist peptide
Conditions: for Subjects negative for treatment-emergent anti-peptide antibodies, % / Subjects positive for treatment-emergent anti-peptide antibodies, %: through Week 16 or Follow-up Week 20; for Subjects positive for treatment-emergent anti-peptide antibodies at any time, %: through Week 16

**Q.** Which “Footnote d group: Baseline titers 1:50, n subjects” value (shortened to “Footnote d group”) (25 mg BID, N=41) does the source give for CC(=O)NCCCC[C@@H]1NC(=O)[C@H](Cc2c[nH]c3c(C)cccc23)NC(=O)[C@H]([C@@H](C)O)NC(=O)[C@H](CC(N)=O)NC(=O)[C@@H](NC(C)=O)C(C)(C)SSC(C)(C)[C@@H](C(=O)N[C@@H](Cc2ccc(OCCN)cc2)C(=O)N[C@@H](Cc2ccc3ccccc3c2)C(=O)NC2(C(=O)N[C@@H](CCC(=O)O)C(=O)N[C@@H](CC(N)=O)C(=O)N[C@@H](Cc3cccnc3)C(=O)N(C)CC(N)=O)CCOCC2)NC1=O [IL-23 receptor antagonist peptide, Ac-[Pen]*-N-T-[W(7-Me)]-[Lys(Ac)]-[Pen]*-Phe[4-(2-aminoethoxy)]-[2-Nal]-[THP]-E-N-[3-Pal]-Sarc-NH2 (*[Pen]-[Pen]* formdisulfidebond)] here?
**A.** 0

**Q.** What about the “Peak titer group <50, n subjects” value (25 mg BID, N=41) of the same compound?
**A.** 0

**Q.** What about the “Peak titer group >50-<100, n subjects” value (25 mg BID, N=41) of the same compound?
**A.** 0

**Q.** What about the “Peak titer group ≥100-<1000, n subjects” value (25 mg BID, N=41) of the same compound?
**A.** 0

**Q.** And the “Peak titer group ≥1000, n subjects” value (25 mg BID, N=41)?
**A.** 0

**Q.** And the “Positive at baseline: Baseline titers 1:50, n subjects” value (“Positive at baseline … n subjects” for short) (25 mg BID, N=41)?
**A.** 0

**Q.** What about the “Treatment-boosted (footnote c): Baseline titers 1:50, n subjects” value (from here on “Treatment-boosted (footnote c)”) (25 mg BID, N=41) of the same compound?
**A.** 0

**Q.** What about the “Treatment-emergent: Peak titers 1:50, n subjects” value (from here on “Treatment-emergent … n subjects”) (25 mg BID, N=41) of the same compound?
**A.** 0

**Q.** And the “Subjects negative for treatment-emergent anti-peptide antibodies, %” value (“Subjects negative … %” below) (25 mg BID, N=41)?
**A.** 100%

**Q.** What about the “Footnote d group” value (25 mg QD, N=42) of the same compound?
**A.** 0

**Q.** And the “Peak titer group <50, n subjects” value (25 mg QD, N=42)?
**A.** 1

**Q.** What about the “Peak titer group >50-<100, n subjects” value (25 mg QD, N=42) of the same compound?
**A.** 0

**Q.** And the “Peak titer group ≥100-<1000, n subjects” value (25 mg QD, N=42)?
**A.** 0

**Q.** What about the “Peak titer group ≥1000, n subjects” value (25 mg QD, N=42) of the same compound?
**A.** 0

**Q.** What about the “Positive at baseline … n subjects” value (25 mg QD, N=42) of the same compound?
**A.** 0

**Q.** What about the “Treatment-boosted (footnote c)” value (25 mg QD, N=42) of the same compound?
**A.** 0

**Q.** And the “Treatment-emergent … n subjects” value (25 mg QD, N=42)?
**A.** 1

**Q.** And the “Subjects positive for treatment-emergent anti-peptide antibodies at any time, %” value (“Subjects positive … at any time, %” below) (25 mg QD, N=42)?
**A.** (2.4%)

**Q.** What about the “Subjects negative … %” value (25 mg QD, N=42) of the same compound?
**A.** 97.6%

**Q.** What about the “Subjects positive for treatment-emergent anti-peptide antibodies, %” value (25 mg QD, N=42) of the same compound?
**A.** 2.4%

**Q.** And the “Footnote d group” value (50 mg QD, N=43)?
**A.** 3

**Q.** What about the “Peak titer group <50, n subjects” value (50 mg QD, N=43) of the same compound?
**A.** 1

**Q.** And the “Peak titer group >50-<100, n subjects” value (50 mg QD, N=43)?
**A.** 0

**Q.** What about the “Peak titer group ≥100-<1000, n subjects” value (50 mg QD, N=43) of the same compound?
**A.** 0

**Q.** What about the “Peak titer group ≥1000, n subjects” value (50 mg QD, N=43) of the same compound?
**A.** 0

**Q.** And the “Positive at baseline … n subjects” value (50 mg QD, N=43)?
**A.** 3

**Q.** What about the “Subjects positive at baseline who were treatment-boosted for antibodies (footnote d: titers did not increase 2-fold), %” value (50 mg QD, N=43) of the same compound?
**A.** 7.0%

**Q.** And the “Subjects positive for anti-peptide antibodies at baseline, %” value (50 mg QD, N=43)?
**A.** 7.0%

**Q.** What about the “Treatment-boosted (footnote c)” value (50 mg QD, N=43) of the same compound?
**A.** 0

**Q.** And the “Treatment-emergent … n subjects” value (50 mg QD, N=43)?
**A.** 1

**Q.** And the “Subjects positive … at any time, %” value (50 mg QD, N=43)?
**A.** (2.3%)

**Q.** And the “Subjects negative … %” value (50 mg QD, N=43)?
**A.** 97.7%

**Q.** And the “Subjects positive for treatment-emergent anti-peptide antibodies, %” value (50 mg QD, N=43)?
**A.** 2.3%

**Q.** And the “Footnote d group” value (100 mg BID, N=41)?
**A.** 0

**Q.** What about the “Peak titer group <50, n subjects” value (100 mg BID, N=41) of the same compound?
**A.** 3

**Q.** What about the “Peak titer group >50-<100, n subjects” value (100 mg BID, N=41) of the same compound?
**A.** 0

**Q.** What about the “Peak titer group ≥100-<1000, n subjects” value (100 mg BID, N=41) of the same compound?
**A.** 0

**Q.** What about the “Peak titer group ≥1000, n subjects” value (100 mg BID, N=41) of the same compound?
**A.** 0

**Q.** What about the “Positive at baseline … n subjects” value (100 mg BID, N=41) of the same compound?
**A.** 0

**Q.** What about the “Treatment-boosted (footnote c)” value (100 mg BID, N=41) of the same compound?
**A.** 0

**Q.** What about the “Treatment-emergent … n subjects” value (100 mg BID, N=41) of the same compound?
**A.** 3

**Q.** What about the “Subjects positive … at any time, %” value (100 mg BID, N=41) of the same compound?
**A.** (7.3%)

**Q.** And the “Subjects negative … %” value (100 mg BID, N=41)?
**A.** 92.7%

**Q.** What about the “Subjects positive for treatment-emergent anti-peptide antibodies, %” value (100 mg BID, N=41) of the same compound?
**A.** 7.3%

**Q.** And the “Footnote d group” value (100 mg QD, N=42)?
**A.** 0

**Q.** What about the “Peak titer group <50, n subjects” value (100 mg QD, N=42) of the same compound?
**A.** 3

**Q.** And the “Peak titer group >50-<100, n subjects” value (100 mg QD, N=42)?
**A.** 0

**Q.** What about the “Peak titer group ≥100-<1000, n subjects” value (100 mg QD, N=42) of the same compound?
**A.** 0

**Q.** What about the “Peak titer group ≥1000, n subjects” value (100 mg QD, N=42) of the same compound?
**A.** 0

**Q.** What about the “Positive at baseline … n subjects” value (100 mg QD, N=42) of the same compound?
**A.** 0

**Q.** What about the “Treatment-boosted (footnote c)” value (100 mg QD, N=42) of the same compound?
**A.** 0

**Q.** And the “Treatment-emergent … n subjects” value (100 mg QD, N=42)?
**A.** 3

**Q.** What about the “Subjects positive … at any time, %” value (100 mg QD, N=42) of the same compound?
**A.** (7.1%)

**Q.** And the “Subjects negative … %” value (100 mg QD, N=42)?
**A.** 92.9%

**Q.** What about the “Subjects positive for treatment-emergent anti-peptide antibodies, %” value (100 mg QD, N=42) of the same compound?
**A.** 7.1%

**Q.** And the “Participants positive for ADA prior to the first dose (baseline)” value (3 of 209, all 50 mg QD group)?
**A.** 1.4%

**Q.** What about the “Footnote d group” value (Combined doses, N=209) of the same compound?
**A.** 3

**Q.** What about the “Peak titer group <50, n subjects” value (Combined doses, N=209) of the same compound?
**A.** 8

**Q.** And the “Peak titer group >50-<100, n subjects” value (Combined doses, N=209)?
**A.** 0

**Q.** And the “Peak titer group ≥100-<1000, n subjects” value (Combined doses, N=209)?
**A.** 0

**Q.** What about the “Peak titer group ≥1000, n subjects” value (Combined doses, N=209) of the same compound?
**A.** 0

**Q.** What about the “Positive at baseline … n subjects” value (Combined doses, N=209) of the same compound?
**A.** 3

**Q.** And the “Subjects positive at baseline who were treatment-boosted for antibodies (footnote d: titers did not increase 2-fold), %” value (Combined doses, N=209)?
**A.** (1.4%)

**Q.** And the “Subjects positive for anti-peptide antibodies at baseline, %” value (Combined doses, N=209)?
**A.** (1.4%)

**Q.** And the “Treatment-boosted (footnote c)” value (Combined doses, N=209)?
**A.** 0

**Q.** What about the “Treatment-emergent … n subjects” value (Combined doses, N=209) of the same compound?
**A.** 8

**Q.** What about the “Subjects positive … at any time, %” value (Combined doses, N=209) of the same compound?
**A.** (3.8%)

**Q.** And the “Subjects negative … %” value (Combined doses, N=209)?
**A.** (96.2%)

**Q.** What about the “Subjects positive for treatment-emergent anti-peptide antibodies, %” value (Combined doses, N=209) of the same compound?
**A.** (3.8%)
